Assay results published in PubChem BioAssay (NCI).
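Cultured in 96-well plates, cells were exposed to test compound for 48 hours across five concentrations. TGI: concentration producing complete growth inhibition.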

What was measured:
Test in all cases: NCI tumour cell line growth inhibition, 48 h
[1] = system: 786-0 renal
[2] = system: A549 NSCLC
[3] = system: ACHN renal
[4] = system: CCRF-CEM leukemia
[5] = system: COLO 205 colon
[6] = system: DLD-1 colon
[7] = system: DMS 114 small cell lung
[8] = system: DMS 273 small cell lung
[9] = system: EKVX NSCLC
[10] = system: HCT-116 colon
[11] = system: HCT-15 colon
[12] = system: HL-60(TB) leukemia
[13] = system: HOP-18 NSCLC
[14] = system: HOP-62 NSCLC
[15] = system: IGROV1 ovarian
[16] = system: K-562 leukemia
[17] = system: KM12 colon
[18] = system: LOX IMVI melanoma
[19] = system: M14 melanoma
[20] = system: M19-MEL melanoma
[21] = system: MALME-3M melanoma
[22] = system: MOLT-4 leukemia
[23] = system: NCI-H226 lung
[24] = system: NCI-H23 lung
[25] = system: NCI-H460 lung
[26] = system: NCI-H522 lung
[27] = system: OVCAR-3 ovarian
[28] = system: OVCAR-8 ovarian
[29] = system: RPMI-8226 leukemia
[30] = system: RXF 393 renal
[31] = system: SF-295 CNS
[32] = system: SF-539 CNS
[33] = system: SK-MEL-2 melanoma
[34] = system: SK-MEL-28 melanoma
[35] = system: SK-MEL-5 melanoma
[36] = system: SK-OV-3 ovarian
[37] = system: SN12C renal
[38] = system: SNB-19 CNS
[39] = system: SW-620 colon
[40] = system: TK-10 renal
[41] = system: U251 CNS
[42] = system: UACC-257 melanoma
[43] = system: UACC-62 melanoma
[44] = system: UO-31 renal
[45] = system: XF 498 CNS
[46] = system: A498 renal
[47] = system: BT-549 breast
[48] = system: CAKI-1 renal
[49] = system: DU-145 prostate
[50] = system: HCC-2998 colon
[51] = system: HOP-92 NSCLC
[52] = system: HS 578T breast
[53] = system: HT29 colon
[54] = system: KM20L2 colon
[55] = system: LXFL 529 NSCLC
[56] = system: MDA-MB-231 breast
[57] = system: MDA-MB-435
[58] = system: MDA-N
[59] = system: NCI/ADR-RES ovarian
[60] = system: OVCAR-4 ovarian
[61] = system: OVCAR-5 ovarian
[62] = system: PC-3 prostate
[63] = system: SF-268 CNS
[64] = system: SNB-75 CNS
[65] = system: SNB-78 CNS
[66] = system: SR leukemia
[67] = system: T-47D breast

Q: Which results are given for O=c1ccc2ccc(O)c3c4c(=O)ccc5ccc(O)c(c1c23)c54?
A: TGI [1]: 4.81 µM; TGI [2]: 12.2 µM; TGI [3]: 6.75 µM; TGI [4]: 3.77 µM; TGI [5]: 3.73 µM; TGI [6]: 3.13 µM; TGI [7]: 3.63 µM; TGI [8]: 3.97 µM; TGI [9]: 8.46 µM; TGI [10]: 2.83 µM; TGI [11]: 2.69 µM; TGI [12]: 3.64 µM; TGI [13]: 3.72 µM; TGI [14]: 4.86 µM; TGI [15]: 3.64 µM; TGI [16]: 5.59 µM; TGI [17]: 3.43 µM; TGI [18]: 2.63 µM; TGI [19]: 3.22 µM; TGI [20]: 2.16 µM; TGI [21]: 1.83 µM; TGI [22]: 8.53 µM; TGI [23]: 5.28 µM; TGI [24]: 3.46 µM; TGI [25]: 11.6 µM; TGI [26]: 3.08 µM; TGI [27]: 11.7 µM; TGI [28]: 10.7 µM; TGI [29]: 9.12 µM; TGI [30]: 2.42 µM; TGI [31]: 9.29 µM; TGI [32]: 3.2 µM; TGI [33]: 3.34 µM; TGI [34]: 5.28 µM; TGI [35]: 2.59 µM; TGI [36]: 8.61 µM; TGI [37]: 4.37 µM; TGI [38]: 4.85 µM; TGI [39]: 5.08 µM; TGI [40]: 5.86 µM; TGI [41]: 3.3 µM; TGI [42]: 6.71 µM; TGI [43]: 1.65 µM; TGI [44]: 3.71 µM; TGI [45]: 3.27 µM

Q: O=c1[nH]c2ccccc2nc1CBr was tested. Which TGI [1] did it give?
A: Its TGI is 9.11 µM.

Q: And the TGI [46]?
A: The TGI was > 53.1 µM.

Q: And the TGI [2]?
A: Its TGI is 39.2 µM.

Q: And the TGI [3]?
A: Its TGI is 27 µM.

Q: And the TGI [47]?
A: Its TGI is 21.4 µM.

Q: And the TGI [48]?
A: The TGI was 19.6 µM.

Q: And the TGI [4]?
A: Its TGI is 1.45 µM.

Q: What about the TGI [5] of the same compound?
A: The TGI was 17.6 µM.

Q: What about the TGI [6] of the same compound?
A: The TGI was 22.8 µM.

Q: What about the TGI [8] of the same compound?
A: Its TGI is 10.4 µM.

Q: What about the TGI [49] of the same compound?
A: The TGI was 37.1 µM.

Q: And the TGI [9]?
A: Its TGI is 9.87 µM.

Q: And the TGI [50]?
A: Its TGI is 56.2 µM.

Q: What about the TGI [10] of the same compound?
A: Its TGI is 21.3 µM.

Q: And the TGI [11]?
A: Its TGI is 26.2 µM.

Q: What about the TGI [12] of the same compound?
A: The TGI was 0.721 µM.

Q: And the TGI [13]?
A: The TGI was 19 µM.

Q: And the TGI [14]?
A: Its TGI is 45 µM.

Q: And the TGI [51]?
A: The TGI was 11.8 µM.

Q: And the TGI [52]?
A: The TGI was 42 µM.

Q: And the TGI [53]?
A: Its TGI is 22.8 µM.

Q: What about the TGI [15] of the same compound?
A: Its TGI is 11.3 µM.

Q: And the TGI [16]?
A: Its TGI is 9.5 µM.

Q: And the TGI [17]?
A: Its TGI is 10.1 µM.

Q: And the TGI [54]?
A: The TGI was 32.9 µM.

Q: And the TGI [18]?
A: The TGI was 3.24 µM.

Q: What about the TGI [55] of the same compound?
A: Its TGI is 3.21 µM.

Q: What about the TGI [19] of the same compound?
A: The TGI was 22.8 µM.

Q: And the TGI [20]?
A: Its TGI is 22.8 µM.

Q: What about the TGI [21] of the same compound?
A: The TGI was 8.66 µM.

Q: What about the TGI [56] of the same compound?
A: The TGI was 23.3 µM.

Q: And the TGI [57]?
A: Its TGI is 25.5 µM.

Q: What about the TGI [58] of the same compound?
A: Its TGI is 24.6 µM.

Q: What about the TGI [22] of the same compound?
A: Its TGI is 4.35 µM.

Q: What about the TGI [23] of the same compound?
A: Its TGI is 37.3 µM.

Q: And the TGI [24]?
A: Its TGI is 29.1 µM.

Q: What about the TGI [25] of the same compound?
A: Its TGI is 29 µM.

Q: What about the TGI [26] of the same compound?
A: The TGI was 1.49 µM.

Q: And the TGI [59]?
A: Its TGI is 51.1 µM.

Q: What about the TGI [27] of the same compound?
A: The TGI was 4.22 µM.

Q: What about the TGI [60] of the same compound?
A: The TGI was 13.4 µM.

Q: And the TGI [61]?
A: Its TGI is 33.7 µM.

Q: And the TGI [28]?
A: The TGI was 34.7 µM.

Q: What about the TGI [62] of the same compound?
A: Its TGI is 25.1 µM.

Q: What about the TGI [29] of the same compound?
A: Its TGI is 9.97 µM.

Q: What about the TGI [30] of the same compound?
A: The TGI was 7.72 µM.

Q: What about the TGI [63] of the same compound?
A: Its TGI is 31.1 µM.

Q: And the TGI [31]?
A: Its TGI is 43.2 µM.

Q: What about the TGI [32] of the same compound?
A: Its TGI is 21.4 µM.

Q: And the TGI [33]?
A: Its TGI is 22.6 µM.

Q: What about the TGI [34] of the same compound?
A: The TGI was 25.6 µM.

Q: And the TGI [35]?
A: The TGI was 23.2 µM.

Q: What about the TGI [36] of the same compound?
A: The TGI was 53.3 µM.

Q: What about the TGI [37] of the same compound?
A: Its TGI is 24.5 µM.

Q: And the TGI [38]?
A: Its TGI is 52 µM.

Q: What about the TGI [64] of the same compound?
A: The TGI was 34.2 µM.

Q: What about the TGI [65] of the same compound?
A: The TGI was 65.6 µM.

Q: What about the TGI [66] of the same compound?
A: The TGI was 2.44 µM.

Q: What about the TGI [39] of the same compound?
A: The TGI was 17.5 µM.

Q: What about the TGI [67] of the same compound?
A: Its TGI is 31.1 µM.

Q: And the TGI [40]?
A: Its TGI is 20.7 µM.

Q: And the TGI [41]?
A: The TGI was 23.8 µM.

Q: And the TGI [42]?
A: Its TGI is 27.3 µM.

Q: What about the TGI [43] of the same compound?
A: The TGI was 21.3 µM.

Q: What about the TGI [44] of the same compound?
A: The TGI was 11.2 µM.

Q: And the TGI [45]?
A: The TGI was 3.51 µM.
